According to patent publication US20110269825A1, “Modified Thromboxane A2 Receptor Promoter Sequence” (priority 2008, published 2011):

Tests used:
Prm1 = conditions: cited from earlier work
Prm3 = conditions: cited from earlier work
Egr1 = assay: Immunoblot analysis of Egr1 expression in HEL cells; type: cell-based, human; conditions: 100 nM PMA plus 10 μM PD98059, 16 h
Protocol: The expression of WT1, Sp1, Egr1, NF-E2, GATA-1 and Ets-1 proteins in HEL cells was confirmed by western blot analysis. Briefly, whole cell protein was resolved by SDS-PAGE (10% acrylamide gels) and transferred to polyvinylidene difluoride (PVDF) membrane according to standard methodology. […] For PMA studies, HEL cells were pre-incubated for the indicated amount of time with 100 nM PMA, with 10 μM PD98059, with 100 nM PMA plus 10 μM PD98059 or, as a control, with vehicle [0.1% (v/v) DMSO]. Whole cell protein (60 μg per lane) was resolved by SDS-PAGE (10% acrylamide gels) and transferred to polyvinylidene difluoride (PVDF) membrane according to standard methodology.

[1] = test system: Prm1-directed luciferase expression; assay: Effect of PMA, PD98059 or Vitamin D3 on Prm1-directed luciferase expression in HEL cells; type: cell-based, human; conditions: 100 nM PMA plus 10 μM PD98059, 16 h
Protocol: HEL and EA.hy 926 cells were co-transfected with the various pGL3Basic-recombinant plasmids (2 mg), encoding firefly luciferase, along with pRL-TK (200 ng), encoding renilla luciferase, using DMRIE-C® transfection reagent. HEK293, WI-38, and 1° hAoSMCs were co-transfected with the pGL3Basic-recombinant plasmids (2 mg), along with pRL-TK (200 ng), using Effectene transfection reagent. In all cases, cells co-transfected with pRL-TK (200 ng) in the presence of either the pGL3Control vector (firefly luciferase gene under the control of the SV40 promoter; 2 mg) or the promoter-less pGL3Basic empty vector (2 mg), which served as positive and negative controls, respectively. […] Relative firefly to renilla luciferase activity (arbitrary units) was calculated as a ratio and was expressed in relative luciferase units (RLU). To investigate the effect of over-expression of exon 5 (+ or −) or KTS (+ or −) isoforms of WT1 on Prm1-directed gene expression, HEL cells were co-transfected with either pGL3b:Prm1 or pGL3b:Prm1D (1.5 μg) plus 200 ng of pRL-TK along with either pcDNA3:WT1 (+/+), pcDNA3:WT1 (+/−), pcDNA3:WT1 (−/+), pcDNA3:WT1 (−/−) (0.5 μg), or as a control, pcDNA3 (0.5 μg). […] The plasmid pCMV5-NAB1, containing the entire coding sequence for NAB1, was generously donated by Dr. Gerald Thiel, University of Saarland Medical Center, Homburg, Germany, and has been described previously (Thiel et al., 2000). To investigate the effect of over-expression of NAB1 on the PMA-mediated induction of Prm1-directed gene expression, HEL cells were transiently co-transfected with pGL3b:Prm1 (2 μg) plus pRL-TK (200 ng) along with either pCMV5 (control) or pCMV:NAB1 (1 μg).

| SMILES | Effect on Prm1 (Prm1) | Effect on transcriptional activity of Prm3 (Prm3) | Effect on PMA-induction of Egr1 protein expression (Egr1) | Effect on luciferase expression directed by the Prm1K sub-fragment [1] | PMA-induction of Prm1-directed luciferase expression in the presence of PD98059 ([1]; 4.3-fold with PMA alone) [fold] |
| --- | --- | --- | --- | --- | --- |
| CCCCC/C=C/C=C1/C(=O)C=C[C@@H]1C/C=C\CCCC(=O)O [15d-PGJ2, 15-deoxy-Δ12,14-prostaglandin J2] | had no effect on Prm1 | suppressed the transcriptional activity of Prm3 |  |  |  |
| COc1cccc(-c2cc(=O)c3ccccc3o2)c1N [PD98059, 2-(2-amino-3-methoxyphenyl)-4H-1-benzopyran-4-one] |  |  | completely abolished the PMA-induction of Egr1 protein expression | neither PMA alone (p=0.4721) nor PMA plus PD98059 (p=0.2693) had any significant effect | 2.3 |
